From ChEMBL document CHEMBL3400071, “The CERT antagonist HPA-12: first practical synthesis and individual binding evaluation of the four stereoisomers” (Bioorg Med Chem, 2015)

Target: T1, Ceramide transfer protein (Homo sapiens, UniProt Q9Y5P4)
T1 sequence (Q9Y5P4 whole entry): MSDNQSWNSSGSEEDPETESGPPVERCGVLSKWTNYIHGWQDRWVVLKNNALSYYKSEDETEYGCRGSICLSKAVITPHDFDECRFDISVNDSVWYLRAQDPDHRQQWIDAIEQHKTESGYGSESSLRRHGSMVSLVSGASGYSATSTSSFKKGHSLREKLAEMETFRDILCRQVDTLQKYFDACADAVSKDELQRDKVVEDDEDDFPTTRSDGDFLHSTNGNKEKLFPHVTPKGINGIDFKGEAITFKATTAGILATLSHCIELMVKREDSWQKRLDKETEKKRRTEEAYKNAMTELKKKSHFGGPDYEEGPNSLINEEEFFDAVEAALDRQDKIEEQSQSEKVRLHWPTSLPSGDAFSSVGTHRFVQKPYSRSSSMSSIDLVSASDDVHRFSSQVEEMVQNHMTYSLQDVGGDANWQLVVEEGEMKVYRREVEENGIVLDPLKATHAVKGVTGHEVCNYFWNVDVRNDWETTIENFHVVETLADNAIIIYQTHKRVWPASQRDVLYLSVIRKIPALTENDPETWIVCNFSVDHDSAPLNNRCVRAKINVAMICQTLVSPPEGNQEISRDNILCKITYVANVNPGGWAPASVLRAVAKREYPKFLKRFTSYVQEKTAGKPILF
Test: Binding affinity to histidine-tagged human recombinant […] containing CERT START domain pre-incubated for 30 mins before biotinylated ceramide probe addition and measured after 18 hrs post probe addition by TR-FRET binding assay

Row | EC50 [µM] | Structure (SMILES)
1 | 25 | CCCCCCCCCCCC(=O)N[C@H](CO)C[C@H](O)c1ccccc1
2 | 159 | CCCCCCCCCCCC(=O)N[C@H](CO)C[C@@H](O)c1ccccc1
3 | 22 | CCCCCCCCCCCC(=O)N[C@@H](CO)C[C@@H](O)c1ccccc1
4 | 4 | CCCCCCCCCCCC(=O)N[C@@H](CO)C[C@H](O)c1ccccc1
